The text below walks through data of patent publication US20250276964A1 (Novartis AG, priority 2021, published 2025).

The assay addresses T1, WIZ (Homo sapiens, UniProt O95785+Q96SW2).
T1 construct: expressed in transfected cells
Put plainly: Quantification of WIZ protein levels in HiBit tag fusion protein assay (WIZ HiBit assay in 293T cells). It is filed as cell-based. The note with it: for Dmax at 25 µM / remaining activity at 25 µM: HEK-293T; for Dmax at 25 µM: read-out: % degradation of WIZ (100-Amax); for remaining activity at 25 µM: read-out: WIZ Amax; for DC50: WIZ HiBit assay in 293T cells, 10-point, 5-fold dilution, highest concentration 25 μM, about 18 hours, read-out: WIZ AC50. The method, boiled down:
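293T cells stably carrying single-copy HiBit-WIZ (HSVTK promoter) treated ~18 h at 37 °C with 10-point, 5-fold dilutions, top 25 μM. Lytic HiBit luminescence read; Amax is DMSO-normalised, curve-fitted % WIZ-HiBit remaining at 25 uM.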

Where [1] appears, read: DMSO-normalized, curve-fitted percentage of WIZ-HiBit remaining at 25 uM.

The structures appear in SMILES notation.

T1 sequence (O95785 whole entry): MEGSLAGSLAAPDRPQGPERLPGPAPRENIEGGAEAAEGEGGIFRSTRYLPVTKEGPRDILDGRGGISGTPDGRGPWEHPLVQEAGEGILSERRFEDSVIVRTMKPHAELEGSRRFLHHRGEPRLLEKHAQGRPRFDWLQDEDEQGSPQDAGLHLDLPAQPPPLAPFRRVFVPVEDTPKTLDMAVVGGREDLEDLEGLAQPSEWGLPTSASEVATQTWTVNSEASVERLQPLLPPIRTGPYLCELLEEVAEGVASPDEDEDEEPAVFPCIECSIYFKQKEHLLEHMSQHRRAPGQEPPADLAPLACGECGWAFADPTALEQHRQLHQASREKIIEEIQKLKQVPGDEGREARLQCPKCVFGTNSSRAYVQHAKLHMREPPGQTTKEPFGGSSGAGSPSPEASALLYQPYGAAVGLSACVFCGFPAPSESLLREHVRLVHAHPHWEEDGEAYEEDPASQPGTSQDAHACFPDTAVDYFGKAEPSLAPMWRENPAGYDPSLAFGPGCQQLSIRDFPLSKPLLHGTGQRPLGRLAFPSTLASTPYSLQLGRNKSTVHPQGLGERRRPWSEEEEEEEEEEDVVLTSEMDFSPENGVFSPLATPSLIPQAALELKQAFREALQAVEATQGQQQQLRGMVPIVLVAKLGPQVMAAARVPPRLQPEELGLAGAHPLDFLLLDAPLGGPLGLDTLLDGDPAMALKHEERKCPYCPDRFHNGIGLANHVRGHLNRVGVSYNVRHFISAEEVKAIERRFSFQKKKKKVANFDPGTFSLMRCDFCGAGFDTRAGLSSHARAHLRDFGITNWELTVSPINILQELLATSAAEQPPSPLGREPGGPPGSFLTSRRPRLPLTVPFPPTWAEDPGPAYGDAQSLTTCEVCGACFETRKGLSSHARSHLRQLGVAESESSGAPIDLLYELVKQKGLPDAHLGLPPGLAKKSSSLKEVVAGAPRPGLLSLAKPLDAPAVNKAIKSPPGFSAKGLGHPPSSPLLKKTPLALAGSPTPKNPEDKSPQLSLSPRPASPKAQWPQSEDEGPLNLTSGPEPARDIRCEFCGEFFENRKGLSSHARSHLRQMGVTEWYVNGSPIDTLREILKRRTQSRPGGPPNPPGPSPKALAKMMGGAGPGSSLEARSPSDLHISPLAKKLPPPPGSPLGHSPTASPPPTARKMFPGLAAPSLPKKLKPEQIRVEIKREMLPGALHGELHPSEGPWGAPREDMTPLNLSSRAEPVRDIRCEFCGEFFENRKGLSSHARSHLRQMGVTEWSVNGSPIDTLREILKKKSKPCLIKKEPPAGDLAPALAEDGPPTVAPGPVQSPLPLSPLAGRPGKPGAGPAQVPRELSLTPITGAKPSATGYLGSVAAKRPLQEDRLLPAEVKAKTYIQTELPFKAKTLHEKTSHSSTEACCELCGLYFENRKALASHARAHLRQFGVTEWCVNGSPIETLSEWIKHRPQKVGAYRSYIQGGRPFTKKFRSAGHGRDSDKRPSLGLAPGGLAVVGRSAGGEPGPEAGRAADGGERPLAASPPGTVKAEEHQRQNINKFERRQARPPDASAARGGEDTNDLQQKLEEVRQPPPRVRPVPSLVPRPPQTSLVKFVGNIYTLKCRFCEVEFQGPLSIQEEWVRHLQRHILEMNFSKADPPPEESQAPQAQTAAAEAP
T1 sequence (Q96SW2 whole entry): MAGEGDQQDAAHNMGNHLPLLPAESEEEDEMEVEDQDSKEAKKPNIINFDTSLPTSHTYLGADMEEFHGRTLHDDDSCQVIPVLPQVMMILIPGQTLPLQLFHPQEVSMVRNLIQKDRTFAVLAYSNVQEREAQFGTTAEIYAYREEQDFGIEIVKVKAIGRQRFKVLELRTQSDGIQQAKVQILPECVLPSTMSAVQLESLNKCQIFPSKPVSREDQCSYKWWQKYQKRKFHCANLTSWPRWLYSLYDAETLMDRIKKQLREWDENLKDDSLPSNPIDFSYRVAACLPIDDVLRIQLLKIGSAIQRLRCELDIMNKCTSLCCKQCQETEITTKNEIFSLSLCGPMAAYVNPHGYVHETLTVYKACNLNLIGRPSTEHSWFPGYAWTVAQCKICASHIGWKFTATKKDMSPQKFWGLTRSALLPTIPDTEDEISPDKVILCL
T1 sequence (Q16531 whole entry partner): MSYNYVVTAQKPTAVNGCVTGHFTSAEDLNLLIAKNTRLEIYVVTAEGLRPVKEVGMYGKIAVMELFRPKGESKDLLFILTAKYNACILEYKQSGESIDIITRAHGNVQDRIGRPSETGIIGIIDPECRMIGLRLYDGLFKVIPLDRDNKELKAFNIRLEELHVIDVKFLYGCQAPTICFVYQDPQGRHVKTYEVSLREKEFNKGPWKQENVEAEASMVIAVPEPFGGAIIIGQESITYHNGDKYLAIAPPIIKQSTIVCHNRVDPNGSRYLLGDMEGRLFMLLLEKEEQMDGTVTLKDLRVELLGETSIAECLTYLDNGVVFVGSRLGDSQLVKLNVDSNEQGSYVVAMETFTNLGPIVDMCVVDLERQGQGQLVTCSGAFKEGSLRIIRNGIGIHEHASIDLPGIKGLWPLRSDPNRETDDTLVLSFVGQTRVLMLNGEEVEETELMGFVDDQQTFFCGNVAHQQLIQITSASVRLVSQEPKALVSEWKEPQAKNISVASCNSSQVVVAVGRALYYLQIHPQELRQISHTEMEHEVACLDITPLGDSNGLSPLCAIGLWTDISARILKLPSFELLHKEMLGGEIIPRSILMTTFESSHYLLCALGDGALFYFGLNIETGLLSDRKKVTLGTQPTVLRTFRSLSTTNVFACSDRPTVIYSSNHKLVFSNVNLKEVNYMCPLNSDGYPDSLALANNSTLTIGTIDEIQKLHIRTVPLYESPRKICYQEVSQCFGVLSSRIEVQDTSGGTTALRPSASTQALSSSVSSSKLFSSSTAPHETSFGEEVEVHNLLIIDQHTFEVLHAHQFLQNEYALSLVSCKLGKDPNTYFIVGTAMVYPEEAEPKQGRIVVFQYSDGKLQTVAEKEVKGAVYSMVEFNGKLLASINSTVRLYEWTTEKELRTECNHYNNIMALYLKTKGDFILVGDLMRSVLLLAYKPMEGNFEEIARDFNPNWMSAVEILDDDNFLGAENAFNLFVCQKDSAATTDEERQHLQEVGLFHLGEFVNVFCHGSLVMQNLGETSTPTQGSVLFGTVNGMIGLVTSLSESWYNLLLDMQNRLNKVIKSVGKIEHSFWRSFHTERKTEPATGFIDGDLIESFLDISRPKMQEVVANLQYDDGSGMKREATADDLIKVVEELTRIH

Take `C[C@@H]1CN(C(=O)N2CCCC2)CCN1Cc1ccc2onc(N3CCC(=O)NC3=O)c2c1` [Example 75, (R)-1-(5-((2-methyl-4-(pyrrolidine-1-carbonyl)piperazin-1-yl)methyl)benzo[d]isoxazol-3-yl)dihydropyrimidine-2,4(1H,3H)-dione]: the DC50 turned out to be 132 nM. Further, the Dmax at 25 µM (100 minus Amax at 25 uM) worked out at 78%. Besides, the remaining activity at 25 µM under setting [1] worked out at 22%.

As to `C[C@@H]1CN(CC2CCOCC2)C[C@H](C)N1Cc1ccc2onc(N3CCC(=O)NC3=O)c2c1` [Example 109, 1-(5-(((2R,6S)-2,6-dimethyl-4-((tetrahydro-2H-pyran-4-yl)methyl)piperazin-1-yl)methyl)benzo[d]isoxazol-3-yl)dihydropyrimidine-2,4(1H,3H)-dione], the DC50 was found to be 355 nM. Also, the Dmax at 25 µM (100 minus Amax at 25 uM) was 73%. The remaining activity at 25 µM under setting [1] is 27%.

Take `C[C@@H]1CN(C2CCC2)CCN1Cc1ccc2onc(N3CCC(=O)NC3=O)c2c1` [Example 77, (R)-1-(5-((4-cyclobutyl-2-methylpiperazin-1-yl)methyl)benzo[d]isoxazol-3-yl)dihydropyrimidine-2,4(1H,3H)-dione]: the DC50 amounted to 22 nM. Moreover, the Dmax at 25 µM (100 minus Amax at 25 uM) stood at 82%. Moreover, the remaining activity at 25 µM under setting [1] is 18%.

Turning to `CS(=O)(=O)N1CC2CCC1CN2Cc1ccc2onc(N3CCC(=O)NC3=O)c2c1` (single isomer, unassigned) [Example 125, 1-(5-((5-(methylsulfonyl)-2,5-diazabicyclo[2.2.2]octan-2-yl)methyl)benzo[d]isoxazol-3-yl)dihydropyrimidine-2,4(1H,3H)-dione], the DC50 was found to be 120 nM. Under “100 minus Amax at 25 uM”, the Dmax at 25 µM stood at 85%. In addition, the remaining activity at 25 µM under setting [1] amounted to 15%.

As for `CC(C)(C)OC(=O)N1CCN(Cc2ccc3onc(N4CCC(=O)NC4=O)c3c2)CC1(C)C` [Example 91, tert-butyl 4-((3-(2,4-dioxotetrahydropyrimidin-1(2H)-yl)benzo[d]isoxazol-5-yl)methyl)-2,2-dimethylpiperazine-1-carboxylate], the DC50 was 298 nM. Also, the Dmax at 25 µM (100 minus Amax at 25 uM) is 81%. Further, the remaining activity at 25 µM under setting [1] was found to be 19%.

Consider `O=C1CCN(c2noc3ccc(CN4CCN(C5CCC5)CC4)cc23)C(=O)N1` [Example 80, 1-(5-((4-cyclobutylpiperazin-1-yl)methyl)benzo[d]isoxazol-3-yl)dihydropyrimidine-2,4(1H,3H)-dione], for which the DC50 came to 14 nM. The Dmax at 25 µM (100 minus Amax at 25 uM) came out at 93%. The remaining activity at 25 µM under setting [1] turned out to be 7%.

For the compound `CC(C)(C)OC(=O)N1[C@@H]2CC[C@H]1CC(Cc1ccc3onc(N4CCC(=O)NC4=O)c3c1)C2` (single isomer, unassigned) [Example 54], the DC50 was determined as 196 nM. Where the note is “100 minus Amax at 25 uM”, the “% degradation of WIZ (100-Amax)” value worked out at 92%. Moreover, the “WIZ Amax” value under setting [1] worked out at 8%.

Regarding `CC(C)C(=O)N1CCN(Cc2ccc3onc(N4CCC(=O)NC4=O)c3c2)CC1` [Example 85, 1-(5-((4-isobutyrylpiperazin-1-yl)methyl)benzo[d]isoxazol-3-yl)dihydropyrimidine-2,4(1H,3H)-dione], the DC50 was determined as 218 nM. Also, the Dmax at 25 µM (100 minus Amax at 25 uM) amounted to 82%. Further, under setting [1], the remaining activity at 25 µM was determined as 18%.

With `COC[C@H]1CN(Cc2ccc3onc(N4CCC(=O)NC4=O)c3c2)CCN1C` [Example 117, (R)-1-(5-((3-(methoxymethyl)-4-methylpiperazin-1-yl)methyl)benzo[d]isoxazol-3-yl)dihydropyrimidine-2,4(1H,3H)-dione], the DC50 worked out at 578 nM. In addition, the Dmax at 25 µM (100 minus Amax at 25 uM) amounted to 87%. The remaining activity at 25 µM under setting [1] was 13%.

With `C[C@@H]1CN(CC(=O)N2CCCCC2)CCN1Cc1ccc2onc(N3CCC(=O)NC3=O)c2c1` [Example 70, (R)-1-(5-((2-methyl-4-(2-oxo-2-(piperidin-1-yl)ethyl)piperazin-1-yl)methyl)benzo[d]isoxazol-3-yl)dihydropyrimidine-2,4(1H,3H)-dione], the DC50 amounted to 300 nM. Also, the Dmax at 25 µM (100 minus Amax at 25 uM) is 78%. Moreover, the remaining activity at 25 µM under setting [1] stood at 22%.
